Source: patent US12157741B2, “Macrocyclic inhibitors of DYRK1A” (DANA-FARBER CANCER INSTITUTE, INC., priority 2018, dated 2024)
Read-outs that look alike come from different tables or passages of the source.

Key:
[1] = biological target: various enzymes (Homo sapiens, UniProt P19525); settings: PRKR; 1 uM
Method: (§1) Ambit profiling from Eurofins (formerly Discoverx) was conducted in accordance with the manufacturer's instructions.

[2] = biological target: various enzymes (Homo sapiens, UniProt P54756); settings: EPHA5; 1 uM
Method: as §1

[3] = biological target: various enzymes (Homo sapiens, UniProt P78368); settings: CSNK1G2; 1 uM
Method: as §1

[4] = biological target: various enzymes (Homo sapiens, UniProt O94921); settings: PFTK1; 1 uM
various enzymes (Homo sapiens, UniProt O94921), sequence (O94921 whole entry): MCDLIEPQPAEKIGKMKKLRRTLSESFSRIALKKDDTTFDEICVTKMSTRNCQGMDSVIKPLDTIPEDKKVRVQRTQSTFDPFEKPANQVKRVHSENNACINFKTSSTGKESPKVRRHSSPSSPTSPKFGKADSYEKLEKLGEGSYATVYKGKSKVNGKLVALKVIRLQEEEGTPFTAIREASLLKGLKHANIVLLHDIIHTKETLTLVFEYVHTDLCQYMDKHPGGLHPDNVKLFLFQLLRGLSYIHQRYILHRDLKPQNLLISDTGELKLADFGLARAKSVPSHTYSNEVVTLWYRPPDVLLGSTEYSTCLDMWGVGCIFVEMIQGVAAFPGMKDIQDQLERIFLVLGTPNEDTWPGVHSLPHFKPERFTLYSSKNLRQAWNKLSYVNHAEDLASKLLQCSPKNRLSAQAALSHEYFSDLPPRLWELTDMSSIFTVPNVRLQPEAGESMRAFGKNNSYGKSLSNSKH
Method: as §1

[5] = biological target: various enzymes (Homo sapiens, UniProt P23458); settings: 1 uM
various enzymes (Homo sapiens, UniProt P23458), sequence (P23458 whole entry): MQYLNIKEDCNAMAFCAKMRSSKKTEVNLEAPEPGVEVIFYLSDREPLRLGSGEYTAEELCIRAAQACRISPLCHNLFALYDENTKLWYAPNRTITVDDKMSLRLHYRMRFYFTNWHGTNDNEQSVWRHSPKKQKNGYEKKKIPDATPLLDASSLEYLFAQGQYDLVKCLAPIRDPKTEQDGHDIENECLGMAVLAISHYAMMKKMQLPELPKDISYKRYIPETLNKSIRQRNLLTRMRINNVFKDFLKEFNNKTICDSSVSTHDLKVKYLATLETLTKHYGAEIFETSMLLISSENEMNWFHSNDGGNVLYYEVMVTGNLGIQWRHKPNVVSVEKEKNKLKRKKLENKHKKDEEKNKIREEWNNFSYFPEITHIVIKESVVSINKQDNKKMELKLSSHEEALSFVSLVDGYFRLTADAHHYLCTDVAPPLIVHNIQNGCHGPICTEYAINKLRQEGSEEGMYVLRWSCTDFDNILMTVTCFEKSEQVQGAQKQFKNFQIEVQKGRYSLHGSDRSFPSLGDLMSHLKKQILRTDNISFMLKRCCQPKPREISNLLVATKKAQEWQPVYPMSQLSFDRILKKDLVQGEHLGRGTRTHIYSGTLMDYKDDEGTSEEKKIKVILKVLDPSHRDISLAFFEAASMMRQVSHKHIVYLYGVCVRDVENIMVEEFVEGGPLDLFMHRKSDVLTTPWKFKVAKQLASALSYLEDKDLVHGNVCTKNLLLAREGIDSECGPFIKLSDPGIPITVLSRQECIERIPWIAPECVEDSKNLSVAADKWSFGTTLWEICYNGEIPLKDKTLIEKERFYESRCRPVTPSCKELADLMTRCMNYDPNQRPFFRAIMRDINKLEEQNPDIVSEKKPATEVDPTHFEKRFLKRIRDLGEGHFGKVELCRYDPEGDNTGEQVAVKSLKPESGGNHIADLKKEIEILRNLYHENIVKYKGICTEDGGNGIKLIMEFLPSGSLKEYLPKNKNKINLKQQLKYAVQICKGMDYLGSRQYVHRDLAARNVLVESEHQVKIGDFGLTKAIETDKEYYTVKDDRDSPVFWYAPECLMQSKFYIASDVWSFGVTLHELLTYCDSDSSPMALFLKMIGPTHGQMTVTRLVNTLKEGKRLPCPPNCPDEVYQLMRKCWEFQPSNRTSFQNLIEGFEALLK
Method: as §1

[6] = biological target: various enzymes (Homo sapiens, UniProt P43405); settings: SYK; 1 uM
Method: as §1

[7] = biological target: T1, various enzymes (Homo sapiens, UniProt Q13873); settings: BMPR2; 1 uM
T1 sequence (Q13873 27-1038): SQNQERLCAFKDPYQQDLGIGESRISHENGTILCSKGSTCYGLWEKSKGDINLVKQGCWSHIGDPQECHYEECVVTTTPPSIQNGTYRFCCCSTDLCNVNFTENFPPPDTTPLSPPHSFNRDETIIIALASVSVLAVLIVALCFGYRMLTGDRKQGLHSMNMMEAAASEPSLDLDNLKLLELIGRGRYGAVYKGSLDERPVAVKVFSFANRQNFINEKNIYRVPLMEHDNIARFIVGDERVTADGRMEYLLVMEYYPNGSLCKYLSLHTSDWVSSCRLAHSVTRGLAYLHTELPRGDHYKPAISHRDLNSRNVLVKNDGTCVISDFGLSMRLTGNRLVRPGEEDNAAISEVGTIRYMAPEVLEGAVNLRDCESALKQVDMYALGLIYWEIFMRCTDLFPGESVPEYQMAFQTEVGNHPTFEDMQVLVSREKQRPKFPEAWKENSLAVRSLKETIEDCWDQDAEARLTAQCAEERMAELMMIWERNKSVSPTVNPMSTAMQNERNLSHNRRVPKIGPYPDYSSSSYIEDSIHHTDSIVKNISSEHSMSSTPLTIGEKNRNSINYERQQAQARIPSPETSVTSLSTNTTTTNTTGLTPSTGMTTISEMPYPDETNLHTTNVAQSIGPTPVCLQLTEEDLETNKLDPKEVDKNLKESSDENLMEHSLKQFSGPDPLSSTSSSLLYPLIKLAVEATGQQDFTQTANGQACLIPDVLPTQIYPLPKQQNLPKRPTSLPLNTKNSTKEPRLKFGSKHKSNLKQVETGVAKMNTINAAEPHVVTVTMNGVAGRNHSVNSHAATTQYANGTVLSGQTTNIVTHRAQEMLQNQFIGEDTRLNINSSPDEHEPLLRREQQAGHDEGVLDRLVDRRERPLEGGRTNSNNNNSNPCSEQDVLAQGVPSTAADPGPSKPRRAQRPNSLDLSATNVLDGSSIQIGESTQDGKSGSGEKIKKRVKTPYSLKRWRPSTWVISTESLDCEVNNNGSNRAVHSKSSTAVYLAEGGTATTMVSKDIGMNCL
Method: as §1

[8] = biological target: various enzymes (Homo sapiens, UniProt P00533, L858R)
Method: as §1

[9] = biological target: T2, various enzymes (Homo sapiens, UniProt Q08881); settings: ITK; 1 uM
T2 sequence (Q08881 1-620): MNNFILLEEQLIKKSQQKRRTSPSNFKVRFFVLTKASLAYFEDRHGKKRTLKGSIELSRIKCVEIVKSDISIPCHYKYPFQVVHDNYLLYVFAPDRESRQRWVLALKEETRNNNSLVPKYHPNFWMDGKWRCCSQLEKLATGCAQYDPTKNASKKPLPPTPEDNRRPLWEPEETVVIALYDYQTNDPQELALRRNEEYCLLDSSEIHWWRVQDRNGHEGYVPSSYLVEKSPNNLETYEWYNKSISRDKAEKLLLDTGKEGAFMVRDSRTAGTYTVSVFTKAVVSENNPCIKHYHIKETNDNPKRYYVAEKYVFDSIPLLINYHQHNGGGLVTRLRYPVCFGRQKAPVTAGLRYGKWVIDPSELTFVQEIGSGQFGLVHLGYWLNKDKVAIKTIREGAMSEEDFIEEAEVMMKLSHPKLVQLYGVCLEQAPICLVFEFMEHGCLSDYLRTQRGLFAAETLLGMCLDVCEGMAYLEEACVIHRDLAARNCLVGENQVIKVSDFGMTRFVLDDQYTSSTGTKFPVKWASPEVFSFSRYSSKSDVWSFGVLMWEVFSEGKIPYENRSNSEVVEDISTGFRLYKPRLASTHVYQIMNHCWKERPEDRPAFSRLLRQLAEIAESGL
Method: as §1

various enzymes (Homo sapiens, UniProt P54756), sequence (P54756 25-1037): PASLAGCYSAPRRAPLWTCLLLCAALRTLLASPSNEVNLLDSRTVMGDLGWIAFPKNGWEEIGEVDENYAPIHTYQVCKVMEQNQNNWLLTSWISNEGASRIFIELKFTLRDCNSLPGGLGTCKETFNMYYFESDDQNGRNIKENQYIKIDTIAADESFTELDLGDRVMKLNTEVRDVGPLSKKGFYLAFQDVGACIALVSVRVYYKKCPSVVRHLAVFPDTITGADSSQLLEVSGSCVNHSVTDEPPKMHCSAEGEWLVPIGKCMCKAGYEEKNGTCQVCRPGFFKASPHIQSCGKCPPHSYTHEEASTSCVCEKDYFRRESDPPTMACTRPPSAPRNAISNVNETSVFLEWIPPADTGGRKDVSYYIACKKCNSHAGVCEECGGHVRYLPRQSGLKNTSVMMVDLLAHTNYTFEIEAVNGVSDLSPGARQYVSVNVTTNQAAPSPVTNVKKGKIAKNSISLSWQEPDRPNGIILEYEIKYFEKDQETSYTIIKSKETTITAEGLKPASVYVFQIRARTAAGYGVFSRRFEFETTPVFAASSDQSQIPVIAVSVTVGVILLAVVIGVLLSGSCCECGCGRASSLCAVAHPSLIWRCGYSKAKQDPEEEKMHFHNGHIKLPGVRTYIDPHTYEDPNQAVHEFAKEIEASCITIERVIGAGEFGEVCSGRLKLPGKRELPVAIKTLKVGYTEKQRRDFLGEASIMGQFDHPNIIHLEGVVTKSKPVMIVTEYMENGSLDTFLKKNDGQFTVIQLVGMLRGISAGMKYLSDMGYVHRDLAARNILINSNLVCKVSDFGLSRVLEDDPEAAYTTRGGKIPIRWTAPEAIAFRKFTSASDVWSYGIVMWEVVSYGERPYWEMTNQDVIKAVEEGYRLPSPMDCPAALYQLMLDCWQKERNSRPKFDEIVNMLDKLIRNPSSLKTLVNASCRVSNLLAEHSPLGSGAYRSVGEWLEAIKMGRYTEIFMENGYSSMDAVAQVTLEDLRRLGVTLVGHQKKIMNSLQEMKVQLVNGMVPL
various enzymes (Homo sapiens, UniProt P78368), sequence (P78368 whole entry): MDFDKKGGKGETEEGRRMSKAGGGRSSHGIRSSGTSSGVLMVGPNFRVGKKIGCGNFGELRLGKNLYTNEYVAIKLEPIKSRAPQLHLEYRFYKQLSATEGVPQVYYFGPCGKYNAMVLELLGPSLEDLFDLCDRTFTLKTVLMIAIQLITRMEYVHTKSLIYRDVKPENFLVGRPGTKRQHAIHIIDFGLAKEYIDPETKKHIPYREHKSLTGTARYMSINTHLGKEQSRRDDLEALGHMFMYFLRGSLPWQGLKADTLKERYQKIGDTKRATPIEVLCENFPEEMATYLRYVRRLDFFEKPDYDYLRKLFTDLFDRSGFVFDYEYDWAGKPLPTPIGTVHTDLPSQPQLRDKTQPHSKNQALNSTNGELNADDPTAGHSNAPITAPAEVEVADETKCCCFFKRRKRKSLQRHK
various enzymes (Homo sapiens, UniProt P19525), sequence (P19525 whole entry): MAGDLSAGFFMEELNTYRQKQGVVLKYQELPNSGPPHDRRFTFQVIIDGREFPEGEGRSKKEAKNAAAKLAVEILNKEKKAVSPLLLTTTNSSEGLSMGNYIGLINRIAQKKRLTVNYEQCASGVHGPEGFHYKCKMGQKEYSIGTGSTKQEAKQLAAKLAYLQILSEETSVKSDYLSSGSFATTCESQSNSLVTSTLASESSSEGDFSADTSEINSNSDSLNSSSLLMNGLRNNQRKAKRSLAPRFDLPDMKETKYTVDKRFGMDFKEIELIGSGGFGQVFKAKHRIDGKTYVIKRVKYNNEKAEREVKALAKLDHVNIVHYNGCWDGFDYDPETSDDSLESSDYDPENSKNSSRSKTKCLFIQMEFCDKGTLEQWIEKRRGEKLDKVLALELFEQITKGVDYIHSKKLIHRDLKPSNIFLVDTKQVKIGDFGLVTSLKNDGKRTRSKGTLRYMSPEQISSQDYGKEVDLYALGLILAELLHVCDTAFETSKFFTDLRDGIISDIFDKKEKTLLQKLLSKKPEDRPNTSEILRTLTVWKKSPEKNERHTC

| Structure (SMILES) | Ambit profiling [1] | Ambit profiling [2] | Ambit profiling [3] | Ambit profiling [4] | Ambit profiling ([5]; JAK1(JH1domain-catalytic)) | Ambit profiling ([5]; JAK1(JH2domain-pseudokinase)) | Ambit profiling [6] | Ambit profiling [7] | Ambit profiling [8] | Ambit profiling [9] | Ambit profiling ([8]; EGFR(L856R), 1 uM) |
| --- | --- | --- | --- | --- | --- | --- | --- | --- | --- | --- | --- |
| CN1Cc2nn(C)c(C#N)c2-c2cnc3[nH]cc(c3c2)-c2cn(nc2C(F)(F)F)CCCC1=O [Compound 48, (Z)-31,5-dimethyl-6-oxo-13-(trifluoromethyl)-11H,21H,31H-5-aza-2(3,5)-pyrrolo[2,3-b]pyridina-1(4,1),3(4,3)-dipyrazolacyclononaphane-35-carbonitrile] | 100 | 97 | 100 | 91 | 100 | 100 | 68 | 85 | 63 | 100 |  |
| CN1Cc2nn(C)cc2-c2cnc3[nH]cc(c3c2)-c2cnn(c2)CCCC1=O [Compound 41, (Z)-31,5-dimethyl-11H,21H,31H-5-aza-2(3,5)-pyrrolo[2,3-b]pyridina-1(4,1),3(4,3)-dipyrazolacyclononaphan-6-one] | 9.2 | 58 | 100 | 69 | 18 | 9.1 | 70 | 4.1 |  | 65 | 87 |
